Measurements reported in ChEMBL document CHEMBL5131537 (J Med Chem, 2022).

Legend:
[1] = Oral bioavailability in Sprague-Dawley rat at 5 mg/kg measured after 0.083 to 24 hrs by LC-MS analysis; type: ADME, organism-based; conditions: in vivo, time 0.083-24 hrs
[2] = Half life in Sprague-Dawley rat at 1 mg/kg, iv measured after 0.083 to 24 hrs by LC-MS analysis; type: ADME, organism-based; conditions: in vivo, time 0.083-24 hrs
[3] = Cytotoxicity against human MT4 cells assessed as reduction in cell viability by MTT assay; type: toxicity, cell-based
[4] = test system: Human immunodeficiency virus 1; assay: Antiviral activity against HIV-1 IIIB harboring reverse transcriptase Y181C mutant infected in human MT4 cells by MTT assay; type: functional, organism-based; conditions: Human immunodeficiency virus 1, IIIB
[5] = target: T1, Cytochrome P450 1A2 (Homo sapiens, UniProt P05177); assay: Inhibition of CYP1A2 in human liver microsomes using phenacetin as substrate incubated for 15 to 45 mins in presence of NADPH
T1 sequence (P05177 whole entry): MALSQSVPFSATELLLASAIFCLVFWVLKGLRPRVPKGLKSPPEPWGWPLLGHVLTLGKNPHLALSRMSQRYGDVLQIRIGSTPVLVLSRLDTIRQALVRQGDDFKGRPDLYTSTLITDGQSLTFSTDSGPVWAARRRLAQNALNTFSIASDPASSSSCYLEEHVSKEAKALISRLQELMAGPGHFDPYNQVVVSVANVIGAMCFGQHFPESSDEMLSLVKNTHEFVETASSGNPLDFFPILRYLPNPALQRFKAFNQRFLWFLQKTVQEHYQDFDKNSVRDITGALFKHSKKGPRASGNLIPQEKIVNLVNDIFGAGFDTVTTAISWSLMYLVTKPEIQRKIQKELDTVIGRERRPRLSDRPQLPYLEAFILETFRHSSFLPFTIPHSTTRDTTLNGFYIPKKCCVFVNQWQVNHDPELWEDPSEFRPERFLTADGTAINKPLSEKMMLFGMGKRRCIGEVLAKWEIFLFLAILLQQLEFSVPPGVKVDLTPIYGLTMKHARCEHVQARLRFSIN

[6] = target: Cytochrome P450 2C9 (Homo sapiens, UniProt P11712); assay: Inhibition of CYP2C9 in human liver microsomes using diclofenac as substrate incubated for 15 to 45 mins in presence of NADPH
Cytochrome P450 2C9, sequence (P11712 whole entry): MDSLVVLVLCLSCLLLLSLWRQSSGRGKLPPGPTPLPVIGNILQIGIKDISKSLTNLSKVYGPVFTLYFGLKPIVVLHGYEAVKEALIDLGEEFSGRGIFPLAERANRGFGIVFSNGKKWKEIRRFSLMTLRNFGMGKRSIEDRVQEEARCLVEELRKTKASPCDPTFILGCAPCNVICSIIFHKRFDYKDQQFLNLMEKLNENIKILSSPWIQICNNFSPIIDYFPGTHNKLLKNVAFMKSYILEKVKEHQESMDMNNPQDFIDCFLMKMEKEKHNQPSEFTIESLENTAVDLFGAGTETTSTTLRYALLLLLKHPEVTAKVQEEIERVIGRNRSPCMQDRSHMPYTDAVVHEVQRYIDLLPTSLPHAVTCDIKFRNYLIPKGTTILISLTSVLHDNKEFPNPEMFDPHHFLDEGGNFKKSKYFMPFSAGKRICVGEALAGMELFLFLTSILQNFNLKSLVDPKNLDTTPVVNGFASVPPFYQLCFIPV

[7] = target: Cytochrome P450 2C19 (Homo sapiens, UniProt P33261); assay: Inhibition of CYP2C19 in human liver microsomes using S-mephenytoin as substrate incubated for 15 to 45 mins in presence of NADPH
Cytochrome P450 2C19, sequence (P33261 whole entry): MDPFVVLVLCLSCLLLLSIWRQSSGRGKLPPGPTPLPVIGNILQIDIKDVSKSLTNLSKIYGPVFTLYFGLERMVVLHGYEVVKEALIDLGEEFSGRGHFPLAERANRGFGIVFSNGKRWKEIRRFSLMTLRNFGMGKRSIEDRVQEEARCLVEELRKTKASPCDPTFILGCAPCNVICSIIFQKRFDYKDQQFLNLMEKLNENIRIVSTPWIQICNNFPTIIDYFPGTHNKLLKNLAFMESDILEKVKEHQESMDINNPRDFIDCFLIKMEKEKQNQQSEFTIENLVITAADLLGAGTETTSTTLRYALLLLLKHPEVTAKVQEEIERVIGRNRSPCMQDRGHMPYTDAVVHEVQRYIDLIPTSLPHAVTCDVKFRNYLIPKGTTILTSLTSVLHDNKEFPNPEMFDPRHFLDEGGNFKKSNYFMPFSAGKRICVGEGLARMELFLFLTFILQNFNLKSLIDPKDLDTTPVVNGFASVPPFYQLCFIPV

[8] = target: Cytochrome P450 2D6 (Homo sapiens, UniProt P10635); assay: Inhibition of CYP2D6 in human liver microsomes using dextromethorphan as substrate incubated for 15 to 45 mins in presence of NADPH
Cytochrome P450 2D6, sequence (P10635 whole entry): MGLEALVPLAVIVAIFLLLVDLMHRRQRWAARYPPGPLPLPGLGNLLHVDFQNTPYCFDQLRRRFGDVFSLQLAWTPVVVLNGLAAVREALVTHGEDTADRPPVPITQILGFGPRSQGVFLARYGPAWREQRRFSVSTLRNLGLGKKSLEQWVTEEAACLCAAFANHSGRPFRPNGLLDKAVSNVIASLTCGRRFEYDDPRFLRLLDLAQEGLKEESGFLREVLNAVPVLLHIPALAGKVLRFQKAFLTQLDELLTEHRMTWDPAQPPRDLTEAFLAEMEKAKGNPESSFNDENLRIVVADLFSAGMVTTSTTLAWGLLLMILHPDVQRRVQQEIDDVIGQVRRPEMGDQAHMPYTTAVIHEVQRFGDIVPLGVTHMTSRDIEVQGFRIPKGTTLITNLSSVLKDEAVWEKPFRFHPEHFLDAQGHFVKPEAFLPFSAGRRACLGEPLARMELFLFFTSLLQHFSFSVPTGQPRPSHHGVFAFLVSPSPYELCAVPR

[9] = target: Cytochrome P450 3A4 (Homo sapiens, UniProt P08684); assay: Inhibition of CYP3A4 in human liver microsomes using midazolam as substrate incubated for 15 to 45 mins in presence of NADPH
Cytochrome P450 3A4, sequence (P08684 whole entry): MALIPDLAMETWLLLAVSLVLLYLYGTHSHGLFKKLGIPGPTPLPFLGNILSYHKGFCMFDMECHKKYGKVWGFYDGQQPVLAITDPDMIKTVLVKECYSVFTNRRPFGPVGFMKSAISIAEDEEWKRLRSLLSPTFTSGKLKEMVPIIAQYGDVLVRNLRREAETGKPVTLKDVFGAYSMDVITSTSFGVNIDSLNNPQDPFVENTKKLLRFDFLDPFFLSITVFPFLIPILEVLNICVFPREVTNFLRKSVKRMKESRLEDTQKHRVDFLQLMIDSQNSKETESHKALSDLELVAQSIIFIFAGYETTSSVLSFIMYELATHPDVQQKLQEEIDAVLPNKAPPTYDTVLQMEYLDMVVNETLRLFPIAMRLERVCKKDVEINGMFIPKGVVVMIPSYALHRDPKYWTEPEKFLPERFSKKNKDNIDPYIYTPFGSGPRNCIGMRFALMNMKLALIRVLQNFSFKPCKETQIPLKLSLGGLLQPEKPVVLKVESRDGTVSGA

[10] = target: hERG (KCNH2) (Homo sapiens, UniProt Q12809); assay: Inhibition of human ERG potassium channel transfected in CHO cells at 40 uM by automated patch clamp assay; type: toxicity, cell-based; conditions: CHO cells transfected with hERG
hERG (KCNH2), sequence (Q12809 whole entry): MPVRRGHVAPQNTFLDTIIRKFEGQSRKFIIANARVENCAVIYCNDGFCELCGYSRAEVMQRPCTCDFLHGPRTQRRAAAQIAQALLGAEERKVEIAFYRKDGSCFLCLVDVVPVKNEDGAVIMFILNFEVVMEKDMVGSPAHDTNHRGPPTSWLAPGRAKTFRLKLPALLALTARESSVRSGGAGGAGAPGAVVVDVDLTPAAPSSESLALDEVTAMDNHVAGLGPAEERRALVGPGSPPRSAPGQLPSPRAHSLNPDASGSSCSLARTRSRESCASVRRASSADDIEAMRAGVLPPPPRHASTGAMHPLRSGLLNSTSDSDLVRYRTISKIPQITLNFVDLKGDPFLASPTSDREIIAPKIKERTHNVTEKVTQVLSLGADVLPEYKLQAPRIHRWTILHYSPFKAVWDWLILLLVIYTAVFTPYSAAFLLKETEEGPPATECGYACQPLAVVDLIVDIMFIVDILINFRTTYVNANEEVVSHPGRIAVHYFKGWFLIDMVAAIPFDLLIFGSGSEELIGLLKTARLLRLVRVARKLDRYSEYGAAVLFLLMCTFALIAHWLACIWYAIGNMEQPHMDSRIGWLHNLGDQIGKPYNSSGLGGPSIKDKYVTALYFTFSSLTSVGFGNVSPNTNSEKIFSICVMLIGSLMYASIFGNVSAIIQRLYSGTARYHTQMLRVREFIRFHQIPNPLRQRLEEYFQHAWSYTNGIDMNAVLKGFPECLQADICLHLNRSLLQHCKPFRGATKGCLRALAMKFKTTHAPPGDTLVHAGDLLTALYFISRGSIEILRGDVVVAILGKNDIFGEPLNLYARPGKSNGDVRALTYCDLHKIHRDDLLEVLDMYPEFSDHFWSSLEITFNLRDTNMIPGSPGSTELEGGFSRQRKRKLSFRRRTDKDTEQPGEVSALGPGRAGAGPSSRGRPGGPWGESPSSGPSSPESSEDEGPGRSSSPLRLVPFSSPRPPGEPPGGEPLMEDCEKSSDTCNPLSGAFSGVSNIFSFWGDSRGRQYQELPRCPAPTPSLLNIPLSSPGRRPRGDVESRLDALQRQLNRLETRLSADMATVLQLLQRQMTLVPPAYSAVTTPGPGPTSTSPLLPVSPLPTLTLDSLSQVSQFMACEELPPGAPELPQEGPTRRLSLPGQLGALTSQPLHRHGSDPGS

[11] = Half life in Sprague-Dawley rat at 5 mg/kg, po measured after 0.083 to 24 hrs by LC-MS analysis; type: ADME, organism-based; conditions: in vivo, time 0.083-24 hrs
[12] = Tmax in Sprague-Dawley rat at 1 mg/kg, iv measured after 0.083 to 24 hrs by LC-MS analysis; type: ADME, organism-based; conditions: in vivo, time 0.083-24 hrs
[13] = Tmax in Sprague-Dawley rat at 5 mg/kg, po measured after 0.083 to 24 hrs by LC-MS analysis; type: ADME, organism-based; conditions: in vivo, time 0.083-24 hrs
[14] = Cmax in Sprague-Dawley rat at 1 mg/kg, iv measured after 0.083 to 24 hrs by LC-MS analysis; type: ADME, organism-based; design: time upper 24 hrs, dose 1 mg/kg, time lower 0.083 hrs, route iv; conditions: in vivo
[15] = AUC (0 to t) in Sprague-Dawley rat at 1 mg/kg, iv measured after 0.083 to 24 hrs by LC-MS analysis; type: ADME, organism-based; design: time upper 24 hrs, dose 1 mg/kg, time lower 0.083 hrs, route iv; conditions: in vivo
[16] = AUC (0 to t) in Sprague-Dawley rat at 5 mg/kg, po measured after 0.083 to 24 hrs by LC-MS analysis; type: ADME, organism-based; design: dose 5 mg/kg, time upper 24 hrs, time lower 0.083 hrs, route po; conditions: in vivo
[17] = AUC (0 to infinity) in Sprague-Dawley rat at 1 mg/kg, iv measured after 0.083 to 24 hrs by LC-MS analysis; type: ADME, organism-based; design: dose 1 mg/kg, time 0.083-24 hrs, route iv; conditions: in vivo
[18] = Clearance in Sprague-Dawley rat at 5 mg/kg, po measured after 0.083 to 24 hrs by LC-MS analysis; type: ADME, organism-based; conditions: in vivo, time 0.083-24 hrs
[19] = Acute toxicity in 12 hr fasted male CD-1(ICR) mouse assessed as animal death at 2 g/kg, IG administered as single dose measured after 14 days; conditions: in vivo, po, 2000 mg/kg, 336 h, time 14 day
[20] = Acute toxicity in 12 hr fasted male CD-1(ICR) mouse assessed as changes in body weight at 2 g/kg, IG administered as single dose measured after 14 days; conditions: in vivo, po, 2000 mg/kg, 336 h, time 14 day
[21] = Acute toxicity in 12 hr fasted female CD-1(ICR) mouse assessed as changes in body weight at 2 g/kg, IG administered as single dose measured after 14 days; conditions: in vivo, po, 2000 mg/kg, 336 h, time 14 day
[22] = Acute toxicity in 12 hr fasted male CD-1(ICR) mouse assessed as behavioral abnormalities at 2 g/kg, IG administered as single dose measured after 14 days; conditions: in vivo, po, 2000 mg/kg, 336 h, time 14 day
[23] = Acute toxicity in 12 hr fasted female CD-1(ICR) mouse assessed as pathological damage in liver at 2 g/kg, IG administered as single dose measured after 14 days by H and E staining based analysis; type: tissue-based; conditions: in vivo, po, 2000 mg/kg, 336 h, time 14 day
[24] = Acute toxicity in 12 hr fasted female CD-1(ICR) mouse assessed as pathological damage in heart at 2 g/kg, IG administered as single dose measured after 14 days by H and E staining based analysis; type: tissue-based; conditions: in vivo, po, 2000 mg/kg, 336 h, time 14 day
[25] = Acute toxicity in 12 hr fasted male CD-1(ICR) mouse assessed as pathological damage in brain at 2 g/kg, IG administered as single dose measured after 14 days by H and E staining based analysis; type: tissue-based; conditions: in vivo, po, 2000 mg/kg, 336 h, time 14 day
[26] = Acute toxicity in 12 hr fasted female CD-1(ICR) mouse assessed as pathological damage in spleen at 2 g/kg, IG administered as single dose measured after 14 days by H and E staining based analysis; type: tissue-based; conditions: in vivo, po, 2000 mg/kg, 336 h, time 14 day
[27] = Acute toxicity in 12 hr fasted female CD-1(ICR) mouse assessed as pathological damage in lung at 2 g/kg, IG administered as single dose measured after 14 days by H and E staining based analysis; type: tissue-based; conditions: in vivo, po, 2000 mg/kg, 336 h, time 14 day
[28] = Acute toxicity in 12 hr fasted male CD-1(ICR) mouse assessed as pathological damage in kidney at 2 g/kg, IG administered as single dose measured after 14 days by H and E staining based analysis; type: tissue-based; conditions: in vivo, po, 2000 mg/kg, 336 h, time 14 day
[29] = Acute toxicity in 12 hr fasted female CD-1(ICR) mouse assessed as pathological damage in kidney at 2 g/kg, IG administered as single dose measured after 14 days by H and E staining based analysis; type: tissue-based; conditions: in vivo, po, 2000 mg/kg, 336 h, time 14 day
[30] = target: Human immunodeficiency virus type 1 reverse transcriptase (Human immunodeficiency virus 1, UniProt Q72547)
Description: Inhibition of HIV-1 reverse transcriptase using oligo(dT)16 as primer measured after 40 mins by picogreen-dye based spectrofluorometric analysis

[31] = in vitro; conditions: human, MT4 cells
Description: Selectivity index, ratio of CC50 for cytotoxicity against human MT4 cells to EC50 for antiviral activity against wild type HIV-1 IIIB infected in human MT4 cells

Work on `COc1cc(-c2ccc(C#N)cc2)ccc1Oc1cc(N)nc(Nc2ccc(C#N)cc2)n1` yielded a bioavailability [1] of 7.57%, a half-life [2] of 60 min and a CC50 [3] of 120 µM. For the same compound, the EC50 [4] was 0.029 µM, the IC50 [5] was greater than 50 µM and the IC50 [6] was 5.16 µM. The IC50 [7] was 4.51 µM, the IC50 [8] was greater than 50 µM and the IC50 [9] was greater than 50 µM. For the same compound, the inhibition at 40 µM [10] was 35.9%, the half-life [11] was 140 min and the Tmax [12] was 4.8 min. For the same compound, the Tmax [13] was 49.8 min, the Cmax [14] was 329 ng/mL and the AUC(0-t) [15] was 326 ng·h/mL. The AUC(0-t) [16] was 116 ng·h/mL, the AUC(0-inf) [17] was 329 ng·h/mL and the CL/F [18] was 675 mL/min/kg. The Activity [19] was “Non-Toxic”, the Activity [20] was “Non-Toxic” and the Activity [21] was “Non-Toxic”. The Activity [22] was “Non-Toxic”, the Activity [23] was “Non-Toxic” and the Activity [24] was “Non-Toxic”. The Activity [25] was “Non-Toxic”, the Activity [26] was “Non-Toxic” and the Activity [27] was “Non-Toxic”. For the same compound, the Activity [28] was “Non-Toxic”, the Activity [29] was “Non-Toxic” and the IC50 [30] was 0.036 µM. It also gave a selectivity ratio [31] of 63400.
